Like-named read-outs stand apart in the source and are kept apart here.
How the values were obtained:
[1] = anaerobic conditions, within 70 days; cited from earlier work
[2] = at 25° C.; cited from earlier work
[3] = cited from earlier work
general bacteria = assay: qRT-PCR of general bacteria 16S rRNA genes in BDI cultures; type: cell-based; conditions: BDI with 1.5 μM TCC or 35 μM TCS
Protocol: Quantitative real-time PCR (qRT-PCR) was performed for enumeration of general 16S rRNA genes and Dehalococcoides 16S rRNA genes in culture DehaloR̂2 and Bio-Dechlor INOCULUM. The primers used for general 16S rRNA genes were Bac1055F (5′-ATG GYT GTC GTC ACCT-3′) and Bac1392R (5′-ACG GGC GGT GTG TAC-3′) (Ritalahti et al., 2006), and the probe was Bac16sTaq (FAM-CAA CGA GCG CAA CCC/3-BHQ-1/). The final volume of PCR reactions was 10 μL, and the final concentration of each chemical in a single reaction tube was: 1× RealMasterMix (Fisher Scientific, Pittsburgh, Pa.), 300 nM Probe, 300 nM each Primer, and 130 nM DNA samples. The PCR conditions were as follows: 2 min at 95° C. followed by 40 cycles of 10 s at 95° C., 20 s at 56° C. and 20 s at 68° C. The primers used for Dehalococcoides 16S rRNA genes were Dhc1200F (5′-CTGGAGCTAATCCCCAAAGCT-3′) and Dhc1271R (5′-CAA CTT CAT GCA GGC GGG-3′), and the probe was Dhc1240Pr (FAM-TCCTCAGTTCGGATTGCAGGC TGAA/3-BHQ-1) (He et al., 2003b). The final volume of PCR reactions was 10 μL, and the final concentration of each chemical in a single reaction tube was: 1× RealMasterMix (Fisher Scientific, Pittsburgh, Pa.), 200 nM Probe, 700 nM each Primer, and 130 nM DNA samples. The PCR conditions were as follows: 2 min at 95° C. followed by 40 cycles of 15 s at 95° C., 20 s at 58° C. and 20 s at 68° C.
Quantitative Real time PCR (qRT-PCR) was carried out in a spectrofluorimetric thermal cycler (Master cycler, epgradient S, Eppendorf). Calibration curves were performed in triplicate and a linear range of 6 orders of magnitude was obtained. Plasmids containing Dehalococcoides strain BAV1 16S rRNA genes were used as standards to construct general 16S rRNA genes and Dehalococcoides 16S rRNA genes calibration curves. The slopes of the calibration curves for general 16S rRNA genes and Dehalococcoides 16S rRNA genes were −3.46 and −3.94, and the Y intercepts were 38 and 44.2, respectively.
DNA Extraction and Quantitative Real-Time PCR. The BDI cultures and DehaloR^2 cultures were shaken vigorously first and then 10 ml of the mixed liquid was removed with a sterile syringe and dispensed into 10 1.5 ml micro centrifuge tubes. These micro centrifuge tubes were then centrifuged at 13,000 rpm for 15 min in order to make a pellet, and the pellet was used for DNA extraction. Qiagen DNeasy Blood & Tissue Kit with modifications to enhance lysis was used for DNA isolation from cultures. DNA samples were stored at −20° C.
Quantitative real-time PCR (qRT-PCR) was performed for enumeration of general 16S rRNA genes and Dehalococcoides 16S rRNA genes in BDI culture without TCC&TCS, BDI culture with 1.5 μM TCC, BDI culture with 35 μM TCS, D DehaloR̂2 culture without TCC&TCS, DehaloR^2 culture with 1.5 μM TCC and DehaloR̂2^2 culture with 35 μM TCS. […]

[4] = at 25° C., table values calculated using PBT Profiler and ECOSAR

Row | Compound | biodegradation in soil [1] | Vapor pressure [2] | Water solubility ([3]; at 20° C.) [µg/mL] | Water solubility [3, 4] [µg/mL] | Water solubility ([3]; at 25° C., table values calculated using PBT Profiler and ECOSAR, listed as Triclocarban) [µg/mL] | General bacteria 16S rRNA gene copies, day 27 (general bacteria) | General bacteria 16S rRNA gene copies, initial (general bacteria) | Water solubility ([3]; at 25° C., table values calculated using PBT Profiler and ECOSAR, listed as Triclosan) [µg/mL]
1 | O=C(Nc1ccc(Cl)cc1)Nc1ccc(Cl)c(Cl)c1 [TCC, 3-(4-chlorophenyl)-1-(3,4-dichlorphenyl) urea] | little biodegradation | 3.61 × 10^−9 mm Hg | 0.05 | 0.65 | 0.65 to 1.55 | 1.4×10^8 gene copies/ml | 7.2×10^7 gene copies/ml | 
2 | Oc1cc(Cl)ccc1Oc1ccc(Cl)cc1Cl [TCS, 5-chloro-2-[2,4-dichloro-phenoxy]-phenol] | little biodegradation | 4.65 × 10^−6 mm Hg | <1 | 4.6 |  | 3.3×10^8 gene copies/ml | 1.0×10^8 gene copies/ml | 1.97 to 4.62

From patent US20120178147A1, “MICROBIAL CULTURES AND METHODS FOR ANAEROBIC BIOREMEDIATION” (priority 2009, published 2012)
